# ChEMBL document CHEMBL1159083, “An octahydro-cyclopenta[c]pyrrole series of inhibitors of the type 1 glycine transporter” (Bioorg Med Chem Lett, 2010)
# Assay: Half life in human microsomes
# Format: ADME, Microsome
row,Structure (SMILES),half-life [min]
1,Cn1cnc(C(=O)N(Cc2ccc(F)c(C(F)(F)F)c2)[C@H]2C[C@H]3CNC[C@H]3C2)c1,> 120
2,Cn1cnc(C(=O)N(Cc2cccc(OC(F)(F)F)c2)[C@H]2C[C@H]3CNC[C@H]3C2)c1,50
3,Cn1cnc(C(=O)N(Cc2cccc(OC(F)(F)F)c2)[C@@H]2C[C@@H]3CN(CCC(F)(F)F)C[C@@H]3C2)c1,< 3.2
4,Cn1cnc(C(=O)N(Cc2cccc(OC(F)(F)F)c2)[C@@H]2C[C@@H]3CN(CC(O)c4ccccc4)C[C@@H]3C2)c1 (stereo partly specified),8.19
5,CN1C[C@H]2C[C@@H](N(Cc3cccc(OC(F)(F)F)c3)C(=O)c3cn(C)cn3)C[C@H]2C1,30.5
6,CCN1C[C@H]2C[C@@H](N(Cc3ccc(F)c(C(F)(F)F)c3)C(=O)c3cn(C)cn3)C[C@H]2C1,> 120
7,CN1C[C@H]2C[C@@H](N(Cc3ccc(F)c(C(F)(F)F)c3)C(=O)c3cn(C)cn3)C[C@H]2C1,> 120
8,CCN1C[C@H]2C[C@@H](N(Cc3cccc(OC(F)(F)F)c3)C(=O)c3cn(C)cn3)C[C@H]2C1,10
9,CC(F)CN1C[C@H]2C[C@@H](N(Cc3cccc(OC(F)(F)F)c3)C(=O)c3cn(C)cn3)C[C@H]2C1 (stereo partly specified),< 3.2
10,Cn1cnc(C(=O)N(Cc2cccc(OC(F)(F)F)c2)[C@@H]2C[C@@H]3CN(CC(C)(C)O)C[C@@H]3C2)c1,7.06

# Next, values leading:
row,half-life [min],Structure (SMILES)
1,> 111,Cn1cnc(C(=O)N(Cc2ccc(F)c(OC3CCCC3)c2)[C@H]2C[C@H]3CNC[C@H]3C2)c1
2,> 120,CC(C)Oc1cccc(CN(C(=O)c2cn(C)cn2)[C@H]2C[C@H]3CNC[C@H]3C2)c1
3,78.1,CN1C[C@H]2C[C@@H](N(Cc3ccc(F)c(OC4CCCC4)c3)C(=O)c3cn(C)cn3)C[C@H]2C1
4,> 120,Cn1cnc(C(=O)N(Cc2cccc(OC3CCCC3)c2)[C@H]2C[C@H]3CNC[C@H]3C2)c1
5,> 120,COc1ccc(CN(C(=O)c2cn(C)cn2)[C@H]2C[C@H]3CNC[C@H]3C2)cc1OC1CCCC1
6,> 120,Cn1cnc(C(=O)N(Cc2ccc(F)c(C(F)(F)F)c2)[C@@H]2C[C@H]3CNC[C@H]3C2)c1
